We go through five compounds from patent US11560400B2, “Salts of diphosphate phosphoramidate of nucleosides as anticancer compounds” (NuCana plc, priority 2017, dated 2023).

Structures can show the parent of a compound that is named as a salt. Where two headings read alike, the source gives them in different places.

The subject of one test is HT29. Briefly: CellTiterGlo cell viability assay, HT29. Format: cell-based. Conditions: HT29, 72 h; for EC50: read-out: Ab EC50; for inhibition at 198 µM: read-out: Top Inhibit. In outline: (§1)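 Duplicate wells received test compound across nine 3.16-fold steps (198 μM to 19.8 nM final) for about 3 days under standard culture. Viability was read by CTG luminescence, and absolute EC50 plus inhibition at highest dose derived.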
(In ATP-based viability assays light output follows the ATP content of the culture.)

In a further test the test system is HepG2. Briefly: CellTiterGlo cell viability assay, HepG2. Format: cell-based. Particulars: HepG2, 72 h; for EC50 / inhibition at 198 µM: Homo sapiens; for EC50: read-out: Ab EC50; for inhibition at 198 µM: read-out: Top Inhibit. In outline:
as §1

In the next test the test system is OVCAR 3. Put plainly: CellTiterGlo cell viability assay, OVCAR 3. Format: cell-based. Particulars: for inhibition at 198 µM: OVCAR-3, 72 h, read-out: Top Inhibit; for EC50: read-out: Ab EC50. An outline of the steps: as §1
The next test concerns MCF-7. Briefly: CellTiterGlo cell viability assay, MCF-7. Format: cell-based. Particulars: MCF-7, 72 h; for inhibition at 198 µM: read-out: Top Inhibit. An outline of the steps: as §1
Another test concerns CCRF-CEM. Briefly: CellTiterGlo cell viability assay, CCRF-CEM. Conditions: 72 h; for EC50: read-out: Ab EC50; for inhibition at 198 µM: read-out: Top Inh. Format: cell-based. An outline of the steps:
as §1

Another test concerns MOLT-4. Briefly: CellTiterGlo cell viability assay, MOLT-4. Format: cell-based. Particulars: MOLT-4, 72 h; for inhibition at 198 µM: read-out: Top Inh; for EC50: read-out: Ab EC50. In outline:
as §1

Another test deals with K562. Briefly: CellTiterGlo cell viability assay, K562. Format: cell-based. Conditions: for inhibition at 198 µM: read-out: Top Inh; for EC50: read-out: Ab EC50. In outline:
as §1

The next test relates to HL-60. Put plainly: CellTiterGlo cell viability assay, HL-60. Format: cell-based. Particulars: HL-60, 72 h; for EC50: read-out: Ab EC50; for inhibition at 198 µM: read-out: Top Inh. In outline: as §1
The subject of another test is RL. Put plainly: CellTiterGlo cell viability assay, RL. Format: cell-based. Conditions: 72 h; for inhibition at 198 µM: Homo sapiens, read-out: Top Inh. In outline: as §1
In another test the test system is RPMI-8226. Put plainly: CellTiterGlo cell viability assay, RPMI-8226. Conditions: RPMI-8226, 72 h; for EC50: read-out: Ab EC50; for inhibition at 198 µM: read-out: Top Inh. Format: cell-based, Human. An outline of the steps: as §1
In another test the test system is KG-1. Put plainly: CellTiterGlo cell viability assay, KG-1. Conditions: KG-1, 72 h; for EC50: read-out: Ab EC50; for inhibition at 198 µM: read-out: Top Inhibit. Format: cell-based. An outline of the steps: as §1
Where [1] appears, read: Homo sapiens, HT-29, 72 h, percentage inhibition at the highest concentration tested.
Setting [2] is: percentage inhibition at the highest concentration tested.
Where [3] appears, read: Homo sapiens, percentage inhibition at the highest concentration tested.
The mark [4] stands for this setting: Homo sapiens, MCF7, 72 h, percentage inhibition at the highest concentration tested.
The mark [5] stands for this setting: Homo sapiens, absolute EC50, numeric values.
Setting [6] is: Homo sapiens, K562, 72 h, percentage inhibition at the highest concentration tested.
Where [7] appears, read: Homo sapiens, HT-29, 72 h, Table 4 classes.
[8] abbreviates: Homo sapiens, OVCAR 3, 72 h, Table 4 classes.
The mark [9] stands for this setting: Homo sapiens, K562, K 562, 72 h, Table 4 classes.

The EC50 is the midpoint of the concentration-response curve. Take `CC(C)OC(=O)[C@H](C)NP(=O)(Oc1ccccc1)OP(=O)(O)OC[C@H]1O[C@@H](n2cnc3c(N)nc(Cl)nc32)[C@H](F)C1O` (stereo partly drawn) [Example 15, 2-Chloro-9-(2′-Deoxy-2′-fluoro-β-D-arabinofuranosyl)adenine-5′-O-[1-phenyl(isopropoxy-L-alaninyl)] Diphosphate Triethylammonium Salt]: the EC50 is 330 nM with HT29 (Homo sapiens, HT-29, 72 h, absolute EC50, numeric values); 370 nM in the test with HepG2 (absolute EC50, numeric values); more than 198 µM in the test with OVCAR 3 (Homo sapiens, OVCAR 3, 72 h, absolute EC50, numeric values); less than 20 nM in the test with CCRF-CEM (setting [5]); 30 nM in the test on MOLT-4 (setting [5]); more than 198 µM with K562 (Homo sapiens, K562, 72 h, absolute EC50, numeric values). The concentration for a half-maximal effect (EC50) with HL-60 (setting [5]) was found to be 60 nM; in the test with RPMI-8226 (setting [5]), 30.3 µM; in the test on KG-1 (setting [5]), 90 nM. Further, the inhibition at 198 µM was 69% in the test on HT29 (setting [1]); 51% with HepG2 (setting [2]); 41% in the test with OVCAR 3 (setting [3]); 47% with MCF-7 (setting [4]); 99% in the test with CCRF-CEM (setting [3]); 90% in the test on MOLT-4 (setting [3]). Moreover, the inhibition at 198 µM was determined as 36% with K562 (setting [6]); 96% in the test on HL-60 (setting [3]); 49% with RL (setting [2]); 80% in the test with RPMI-8226 (setting [3]); 92% in the test on KG-1 (setting [3]).

As to `CCN(CC)CC.C[C@H](NP(=O)(Oc1cccc2ccccc12)OP(O)(=S)OC[C@H]1O[C@@H](n2cnc3c(N)nc(Cl)nc32)[C@@H](F)[C@@H]1O)C(=O)OCc1ccccc1` (stereo partly drawn) [Example 26, 2-Chloro-9-(2′-Deoxy-2′-fluoro-β-D-arabinofuranosyl)adenine-5′-O-[l-naphthyl(benzoxy-L-alaninyl)] phosphorothiol-phosphate Triethylammonium Salt], the EC50 with HT29 (Table 4 classes) is 200 to 1000 nM; in the test with OVCAR 3 (OVCAR 3, 72 h, Table 4 classes), more than 10 µM; in the test with CCRF-CEM (Table 4 classes), less than 200 nM; in the test with MOLT-4 (Table 4 classes), less than 200 nM; with K562 (K 562, 72 h, Table 4 classes) it was more than 10 µM; in the test with HL-60 (Table 4 classes), less than 200 nM. For the same compound, the EC50 in the test with RL (Table 4 classes, read-out: Ab EC50) was more than 10 µM; with RPMI-8226 (Table 4 classes) it was 1 to 5 µM; in the test on KG-1 (Table 4 classes) it was less than 200 nM. Further, the “Top Inhibit” value worked out at 64% in the test on HT29 (setting [2]); 49% in the test with HepG2 (setting [2]); 62% with OVCAR 3 (OVCAR 3, 72 h, percentage inhibition at the highest concentration tested); 44% with MCF-7 (setting [2]); 91% with KG-1 (setting [2]). Further, the “Top Inh” value turned out to be 99% in the test on CCRF-CEM (setting [2]); 84% with MOLT-4 (setting [2]); 69% with K562 (K562, 72 h, percentage inhibition at the highest concentration tested); 95% in the test on HL-60 (setting [2]); 56% with RL (setting [2]); 93% in the test with RPMI-8226 (setting [2]).

As for `COC(=O)[C@H](C)NP(=O)(Oc1ccccc1)OP(=O)(O)OC[C@H]1O[C@@H](n2cnc3c(N)nc(Cl)nc32)[C@H](F)C1O` (stereo partly drawn) [Example 16, 2-Chloro-9-(2′-Deoxy-2′-fluoro-β-D-arabinofuranosyl)adenine-5′-O-[1-phenyl(methoxy-L-alaninyl)] Diphosphate Triethylammonium Salt], the EC50 in the test on HT29 (setting [7]) was 200 to 1000 nM; in the test on HepG2 (Table 4 classes), 200 to 1000 nM; with OVCAR 3 (setting [8]) it was more than 10 µM; in the test with CCRF-CEM (Homo sapiens, Table 4 classes), less than 200 nM; in the test on MOLT-4 (Homo sapiens, Table 4 classes) it was less than 200 nM; with K562 (setting [9]), more than 10 µM. The EC50 was less than 200 nM in the test with HL-60 (Homo sapiens, Table 4 classes); more than 10 µM with RPMI-8226 (Homo sapiens, Table 4 classes); less than 200 nM in the test on KG-1 (Homo sapiens, Table 4 classes). Further, the inhibition at 198 µM turned out to be 71% in the test on HT29 (setting [1]); 53% with HepG2 (setting [2]); 44% in the test on OVCAR 3 (setting [3]); 47% with MCF-7 (setting [4]); 99% in the test on CCRF-CEM (setting [3]); 97% in the test with MOLT-4 (setting [3]). Moreover, the inhibition at 198 µM worked out at 33% with K562 (setting [6]); 96% in the test on HL-60 (setting [3]); 49% with RL (setting [2]); 84% in the test on RPMI-8226 (setting [3]); 93% in the test on KG-1 (setting [3]).

For the compound `C[C@@H](NP(=O)(Oc1ccccc1)OP(=O)(O)OC[C@H]1O[C@@H](n2cnc3c(N)nc(Cl)nc32)[C@H](F)C1O)C(=O)OCC(C)(C)C` (stereo partly drawn) [Example 14, 2-Chloro-9-(2′-Deoxy-2′-fluoro-β-D-arabinofuranosyl)adenine-5′-O-[phenyl(neopentoxy-D-alaninyl)] Diphosphate Triethylammonium Salt], the EC50 is 200 to 1000 nM in the test with HT29 (setting [7]); 200 to 1000 nM in the test with HepG2 (Table 4 classes); more than 10 µM in the test on OVCAR 3 (setting [8]); less than 200 nM in the test on CCRF-CEM (Homo sapiens, Table 4 classes); less than 200 nM in the test on MOLT-4 (Homo sapiens, Table 4 classes); more than 10 µM with K562 (setting [9]). The EC50 with HL-60 (Homo sapiens, Table 4 classes) was less than 200 nM; with RPMI-8226 (Homo sapiens, Table 4 classes) it was more than 10 µM; in the test on KG-1 (Homo sapiens, Table 4 classes) it was less than 200 nM. Further, the inhibition at 198 µM came out at 71% with HT29 (setting [1]); 52% with HepG2 (setting [2]); 43% in the test on OVCAR 3 (setting [3]); 48% with MCF-7 (setting [4]); 99% in the test with CCRF-CEM (setting [3]); 95% with MOLT-4 (setting [3]). The inhibition at 198 µM with K562 (setting [6]) worked out at 36%; in the test on HL-60 (setting [3]), 96%; in the test with RL (setting [2]), 49%; with RPMI-8226 (setting [3]), 78%; in the test with KG-1 (setting [3]) it was 93%.

Take `CC(C)(NP(=O)(Oc1ccccc1)OP(=O)(O)OC[C@H]1O[C@@H](n2cnc3c(N)nc(Cl)nc32)[C@H](F)C1O)C(=O)OCc1ccccc1` (stereo partly drawn) [Example 10, 2-Chloro-9-(2′-Deoxy-2′-fluoro-β-D-arabinofuranosyl)adenine-5′-O-[phenyl(benzoxy-dimethylglycinyl)] Diphosphate Triethylammonium Salt]: the EC50 in the test with HT29 (setting [7]) was 200 to 1000 nM; in the test with HepG2 (Table 4 classes), 1000 to 5000 nM; in the test with OVCAR 3 (setting [8]), more than 10 µM; in the test with MCF-7 (Homo sapiens, MCF7, 72 h, Table 4 classes, read-out: Ab EC50), more than 10 µM; in the test with CCRF-CEM (Homo sapiens, Table 4 classes), less than 200 nM; with MOLT-4 (Homo sapiens, Table 4 classes), less than 200 nM. The concentration giving a half-maximal response (EC50) was more than 10 µM in the test with K562 (setting [9]); less than 200 nM in the test on HL-60 (Homo sapiens, Table 4 classes); more than 10 µM in the test with RPMI-8226 (Homo sapiens, Table 4 classes); less than 200 nM with KG-1 (Homo sapiens, Table 4 classes). Also, the inhibition at 198 µM in the test with HT29 (setting [1]) stood at 70%; in the test on HepG2 (setting [2]), 55%; in the test with OVCAR 3 (setting [3]), 42%; with MCF-7 (setting [4]) it was 51%; with CCRF-CEM (setting [3]) it was 99%; with MOLT-4 (setting [3]), 93%. Moreover, the inhibition at 198 µM with K562 (setting [6]) was 37%; in the test with HL-60 (setting [3]) it was 96%; in the test with RL (setting [2]) it was 48%; with RPMI-8226 (setting [3]), 80%; in the test with KG-1 (setting [3]), 92%.
